Measurements published in the NIST ThermoML archive (doi:10.1016/j.fluid.2011.09.020).

Details: Liquid, Ebulliometric method (Recirculating still)

O=C(O)C(Cl)Cl [2,2-dichloroacetic acid]
Details	vapor or sublimation pressure [kPa]
384.3 K	5
388.3 K	6
391.8 K	7
394.8 K	8
397.6 K	9
400.2 K	10
402.4 K	11
404.3 K	12
406.4 K	13
408.3 K	14
410.1 K	15
414.1 K	17.5
417.5 K	20
423.5 K	25
428.6 K	30
437 K	40

O=C(O)CCl [chloroethanoic acid]
Details	vapor or sublimation pressure [kPa]
380.7 K	5
384.7 K	6
389.5 K	7.5
391 K	8
393.8 K	9
396.3 K	10
398.7 K	11
400.7 K	12
402.7 K	13
404.6 K	14
406.3 K	15
410.2 K	17.5
413.7 K	20
419.5 K	25
424.5 K	30
432.6 K	40
